Laboratory results from US20220017541A1, “INHIBITORS OF ARGINASE” (Black Belt Tx Ltd, priority 2018, published 2022).

These compounds were tested against T1, arginase activity in intact BMM-M2 cells (Mus musculus, UniProt Q61176) (assay: Cell-based arginase assay: urea production by cultured BMM-M2 cells). Conditions: 10 μM test compound, 24 h.
T1 construct: endogenous in cells; host or cells: bone-marrow derived macrophages from male C57BL/6 mice, polarised to M2 with IL-4
T1 sequence (Q61176 1-323): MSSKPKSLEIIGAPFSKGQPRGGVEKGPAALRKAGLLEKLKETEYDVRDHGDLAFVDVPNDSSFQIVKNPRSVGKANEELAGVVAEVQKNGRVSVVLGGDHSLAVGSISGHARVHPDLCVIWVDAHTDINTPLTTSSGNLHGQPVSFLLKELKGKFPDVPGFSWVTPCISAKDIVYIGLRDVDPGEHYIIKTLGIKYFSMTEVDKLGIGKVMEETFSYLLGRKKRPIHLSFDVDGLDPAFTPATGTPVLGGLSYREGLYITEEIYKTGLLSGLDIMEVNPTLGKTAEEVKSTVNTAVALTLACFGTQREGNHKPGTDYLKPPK
Protocol: Murine bone-marrow derived macrophages (BMM) represent a convenient in vitro model that enables differentiation of these cells towards M1 or M2 macrophages. Briefly, male C57BL/6 mice 7-8 weeks old were euthanized by carbon dioxide asphyxiation. Femur and tibiae bones were removed under aseptic conditions and collected in a plate containing sterile ice-cold PBS 1×. After sterilization of bones in 70% ethanol during 1 min, bones were placed into a clean Petri dish containing fresh sterile ice-cold PBS 1×. The ends of each bone were cut and the marrow cavity was flushed using forceps and syringes filled with pre-warmed complete α-MEM growing medium (α-MEM without red phenol (Life Technologies, Cat. No. #41061-029) supplemented with 10% FBS, penicillin and streptomycin). Bone marrow (BM) cells were harvested in a 15 ml clean tube and centrifuged at 400 g for 8 min at RT. Supernatant was discarded and BM pellet was re-suspended in 5 ml Ammonium-Chloride-Potassium (ACK) buffer for 5 minutes at RT to lysis RBC. BM cell suspension was centrifuged at 400 g for 8 min at RT. Supernatant was discarded and BM cell pellet was re-suspended in complete α-MEM growing medium and passed through a 70 μm cell restrainer to eliminate solid contaminates and cellular aggregates. BM cells were seeded in 8 ml of complete α-MEM growing medium supplemented with 100 ng/ml recombinant mouse M-CSF (R&D Systems, Cat. No. #416-ML-050) in 100-mm dishes. BM cells were cultured overnight to get rid of contaminating stromal cells in a humidified incubator with 5% CO2 at 37° C. At the following day, non-adherent cells were collected in a clean 15-ml tube and centrifuged at 400 g for 8 min at RT. Cell pellet was re-suspended in complete α-MEM growing medium and counted using a hemocytometer Neubauer's chamber. Hematopoietic precursor cells were differentiated into BMM in presence of complete α-MEM growing medium supplemented 50 ng/ml M-CSF for 3 days. Finally to polarize BMM towards M2 phenotype, cells were incubated in presence 20 ng/ml of recombinant mouse IL-4 (R&D Systems, Cat. No. #404-ML-010) added to fresh complete α-MEM growing medium supplemented 50 ng/ml M-CSF for 24 h.
At the day of the experiment, BMM-M2 were treated for 24 h with vehicle (DMSO) or compounds of the invention at 1 and 10 μM prepared in fresh complete α-MEM growing medium supplemented 50 ng/ml M-CSF, 20 ng/ml IL-4 and 10 mM L-arginine (Cat. No. #A5006, Sigma Aldrich). At the next day, 70 μl aliquots of each treated culture media (supernatants) were transferred into a clear 96-well plate. Measurements of urea produced by BMM-M2 were performed using the adapted protocol detailed in Example B1. Wells without BMM-M2 containing only treatment media (vehicle) were used to determine the zero cell-derived urea production (blank). All treatments were carried out in triplicates.
The inhibition of urea production was calculated subtracting the absorbance from the blank to the absorbance from all treatments and it was expressed as the percentage of the absorbance from the reaction containing the test article treatment with respect to the absorbance from vehicle treatment (maximum of urea production).

SMILES	Inh. urea production @10 μM (%)
CC(c1ccccc1)N1CCC(C(N)(CCCCB(O)O)C(=O)O)CC1 (stereo not shown) [Compound 9, 2-amino-6-borono-2-(1-(1-phenylethyl)piperidin-4-yl)hexanoic acid]	++ (25% < % inhibition < 15% at 10 μM test compound)
CC1(C)OB(CCCCC(N)(C(=O)O)C2CCN(C3CCCc4ccccc43)CC2)OC1(C)C (stereo not shown) [Compound 77, 2-amino-2-(1-(1,2,3,4-tetrahydronaphthalen-1-yl)piperidin-4-yl)-6-(4,4,5,5-tetramethyl-1,3,2-dioxaborolan-2-yl)hexanoic acid]	++ (25% < % inhibition < 15% at 10 μM test compound)

Same assay, conditions: 10 μM test compound, 24 h, 10 µM

SMILES	Inh. urea production @10 μM (%)
NC(CCCCB(O)O)(C(=O)O)C1CCN(C2CCc3ccccc32)CC1 (single isomer, unassigned) [Compound 2, 2-amino-6-borono-2-(1-(2,3-dihydro-1H-inden-1-yl)piperidin-4-yl)hexanoic acid]	+++ (% inhibition > 25 at 10 μM test compound)
NC(CCCCB(O)O)(C(=O)O)C1CCN(C2CCCc3ccccc32)CC1 (single isomer, unassigned) [Compound 6, 2-amino-6-borono-2-(1-(1,2,3,4-tetrahydronaphthalen-1-yl)piperidin-4-yl)hexanoic acid]	+ (% inhibition < 15 at 10 μM)
CC(c1ccccc1)N1CCC(C(N)(CCCCB(O)O)C(=O)O)CC1 (single isomer, unassigned) [Compound 11, 2-amino-6-borono-2-(1-(1-phenylethyl)piperidin-4-yl)hexanoic acid]	+ (% inhibition < 15 at 10 μM)

Same assay, conditions: 10 μM test compound, 24 h, read-out: Inh. urea production @10 μM (%)

SMILES	inhibition at 10 µM [%]
NC(CCCCB(O)O)(C(=O)O)C1CCN(C2CCc3ccccc32)CC1 (single isomer, unassigned) [Compound 3, 2-amino-6-borono-2-(1-(2,3-dihydro-1H-inden-1-yl)piperidin-4-yl)hexanoic acid]	< 15
NC(CCCCB(O)O)(C(=O)O)C1CCN(C2CCCc3ccccc32)CC1 (single isomer, unassigned) [Compound 4, 2-amino-6-borono-2-(1-(1,2,3,4-tetrahydronaphthalen-1-yl)piperidin-4-yl)hexanoic acid]	> 25
NC(CCCCB(O)O)(C(=O)O)C1CCN(C2CCCc3ccccc32)CC1 (single isomer, unassigned) [Compound 5, 2-amino-6-borono-2-(1-(1,2,3,4-tetrahydronaphthalen-1-yl)piperidin-4-yl)hexanoic acid]	> 25
CC(c1ccccc1)N1CCC(C(N)(CCCCB(O)O)C(=O)O)CC1 (single isomer, unassigned) [Compound 10, 2-amino-6-borono-2-(1-(1-phenylethyl)piperidin-4-yl)hexanoic acid]	> 25
NC(CCCCB(O)O)(C(=O)O)C1CCN(C2CCc3cc(Cl)ccc32)CC1 (single isomer, unassigned) [Compound 14, 2-amino-6-borono-2-[1-(5-chloroindan-1-yl)-4-piperidyl]hexanoic acid]	> 25
NC(CCCCB(O)O)(C(=O)O)C1CCN(C2CCCc3cc(Cl)ccc32)CC1 (single isomer, unassigned) [Compound 17, 2-amino-6-borono-2-(1-(6-chloro-1,2,3,4-tetrahydronaphthalen-1-yl)piperidin-4-yl)hexanoic acid]	> 25
CNC(CCCCB(O)O)(C(=O)O)C1CCN(C2CCCc3ccccc32)CC1 (single isomer, unassigned) [Compound 79, 6-borono-2-(methylamino)-2-(1-(1,2,3,4-tetrahydronaphthalen-1-yl)piperidin-4-yl)hexanoic acid]	> 25
NC(CCCCB(O)O)(C(=O)O)C1CCN(C2CCCc3ccc(F)cc32)CC1 (single isomer, unassigned) [Compound 83, 2-amino-6-borono-2-(1-(7-fluoro-1,2,3,4-tetrahydronaphthalen-1-yl)piperidin-4-yl)hexanoic acid]	> 25
NC(CCCCB(O)O)(C(=O)O)C1CCN(C2CCCCc3ccccc32)CC1 (single isomer, unassigned) [Compound 84, 2-amino-6-borono-2-(1-(6,7,8,9-tetrahydro-5H-benzo[7]annulen-5-yl)piperidin-4-yl)hexanoic acid]	> 25
NC(CCCCB(O)O)(C(=O)O)C1CCN(C2CCc3cc(C(F)(F)F)ccc32)CC1 (single isomer, unassigned) [Compound 85, 2-amino-6-borono-2-[1-[5-(trifluoromethyl)indan-1-yl]-4-piperidyl]hexanoic acid]	> 25
NC(CCCCB(O)O)(C(=O)O)C1CCN(C2CCc3ccccc32)CC1 (stereo not shown) [Compound 1, 2-amino-6-borono-2-(1-(2,3-dihydro-1H-inden-1-yl)piperidin-4-yl)hexanoic acid]	> 25
